Results as given in patent publication US12569508B2, “Antimicrobial compositions and methods of use” (priority 2020, dated 2026).

Assays:
[1] = system: P. aeruginosa (PAO1); test: C. elegans PAO1 infection model; format: in vivo, Caenorhabditis elegans
Protocol: For the infection study, an overnight culture of P. aeruginosa (PAO1) was diluted to an OD of 0.1 and 200 μL was seeded onto NGM (50 mM NaCl and 0.35% peptone) agar plates for 12 h at 37° C. After 12 h, the collected L4 stage nematodes were incubated on PAO1 seeded agar plates and allowed to feed on the bacteria for 6 h at 25° C. (Uccelletti D et al., 2010, Antimicrobial Agents and Chemotherapy 54(9), 3853-3860). Thereafter, the nematodes were removed from the agar and washed multiple times to remove PAO1 from the outside and the nematodes were split into groups of 20 in OGM medium. Besides the non-treated control, the infected nematodes were treated with various concentrations of tobramycin as an unformulated solution or loaded in MO-LCNPs.
In both the healthy and infected nematodes study, nematodes were assessed as live or dead under a bright field microscopy through either being curled and moving (live) or stiff and non-moving (dead) at 4 h, 24 h and 48 h post treatment. The percentage of live nematodes to the total number of nematodes in the samples was compared to healthy, non-treated controls to compute the % survival.
Following 24 h and 48 h, samples of the nematodes were taken and washed with M9 buffer containing 1 mM sodium azide and then 0.01 M PBS before being counted. The nematodes were then mechanically disrupted via vortex mixing in tubes with 200 mg of 1.0 mm silicon carbide beads (BioSpec Products, Bartleville, OK) for 10 mins (Richter K et al. 2017, Frontiers in Cellular and Infection Microbiology, 7: Article 280). The disrupted nematodes and bacterial suspensions were serial diluted and spot plated on Pseudomonas isolation agar for colony forming units (CFU) counting to determine the CFU per nematode.

[2] = system: 6 mm full-thickness wound infected with P. aeruginosa; test: Chronic full-thickness wound infection model: macroscopic and microscopic wound healing; format: in vivo, Balb/c mice
Protocol: Following the same procedure as above, male and female mice were wounded with a 6 mm circular full-thickness wound under anaesthesia and pain relief. […] Treatments were repeated every 24 h for three days and monitored for the bacterial burden and digital photographs. On day six, mice were sacrificed as described above. Digital photographs of the wounds that were taken daily (day zero to six) were used for the macroscopic assessment of healing using ImageJ software. The images were calibrated to a ruler to measure the wounds length, gape and surface area, as previously described (Abbott C A et al., 2013, supra). The microscopic analysis was completed with histology assessments. Following overnight fixation in 4% (v/v) formaldehyde, collected wound halves were routinely processed into paraffin, and 4 μm thick sections were cut using a semi-automated rotary microtome (HistoCore MultiCut, Leica Biosystems, Melbourne, Australia). The sections were stained for haematoxylin and eosin using established protocols (Kopecki, Z., et al., 2009, supra). Following, all sections were imaged via […] slide scanner, Hamamatsu Photonics, Japan) and analysed using NDP.view2 Viewing software (Hamamatsu Photonics, Japan) to microscopically assess the healing via measurement of wound length, gape and percentage of wound re-epithelisation following previously used protocols ([…]., et al., 2021, supra).

[3] = system: P. aeruginosa Xen41; test: Chronic full-thickness wound infection model: bacterial load; format: in vivo, Balb/c mice
Protocol: Immediately after wounding, group 1 was inoculated with 10^7 CFU of bioluminescent P. aeruginosa strain (Xen41, PerkinElmer, Waltham, MA, USA) in 10 μL of 0.9% saline. All other mice were covered with an adhesive dressing (Opsite Flexigrid, Smith & Nephew, London, UK). All mice were given soaked food and free access to water for the study. Postoperative analgesia (0.05 mg/kg buprenorphine) was provided 10 h and 24 h post-surgery via subcutaneous administration. After inoculation, mice were imaged using IVIS Spectrum Live Animal Imaging System (PerkinElmer, Waltham, MA, USA) and then daily until sacrifice to quantity radiance (photons/s) of the bioluminescent bacteria in the wound and correlate to the infection load, as previously described (Abbott C A et al., 2013, Contributors, in Handbook of Proteolytic Enzymes, N. D. Rawlings and G. Salvesen, Editors. 2013, Academic Press. p. xxxv-xlviii). Using built-in Living Image R software, regions of interest (ROI) were selected surrounding the wound to quantify the total photon emission following established protocols (Haidari, H., et al., 2021, Acta Biomaterialia, 128: 420-434; Kopecki, Z., et al., 2009, Journal of Investigative Dermatology, 129(8): 2031-2045).
After the pilot, it was determined that a 6 mm wound+10^6 CFU P. aeruginosa infection was the appropriate model to proceed with. […]

NC[C@H]1O[C@H](O[C@H]2[C@H](O)[C@@H](O[C@H]3O[C@H](CO)[C@@H](O)[C@H](N)[C@H]3O)[C@H](N)C[C@@H]2N)[C@H](N)C[C@@H]1O [unformulated TOB, tobramycin]
survival of infected nematodes ([1]; 24 h, 3 μg/mL): 13%
survival of infected nematodes ([1]; 24 h, 6 μg/mL): 65%
survival of infected nematodes ([1]; 24 h, 15 μg/mL): 83%
bacteria killed compared to control ([1]; 24 h, 15 μg/mL and 60 μg/mL): 1 log
survival of infected nematodes ([1]; 24 h, 60 μg/mL): 87%
PAO1 infection level ([1]; 48 h): ~4 log
survival of infected nematodes ([1]; 48 h, 3 μg/mL): 7%
PAO1 surviving ([1]; 48 h, 60 μg/mL): 2 log
average survival of infected nematodes ([1]; 48 h, 6-60 μg/mL): 65%
macroscopic dermal gape ([2]; day five): 88±11%
macroscopic wound area (of the original wound) ([2]; day five, after two doses): 66±13%
dermal gape (histology) ([2]; day six): 5.2±0.8 mm
macroscopic dermal gape ([2]; day six): 77±10%
macroscopic wound area (of the original wound) ([2]; day six, after three doses): 75±18%
wound length (histology) ([2]; day six, after three doses): 7.6±0.9 mm
wound reepithelization ([2]; day six, histology): 41±8%
change in infection level compared to saline ([3]; after each once-daily dose): no statistical change in the infection level
P. aeruginosa remaining in excised wounds ([3]; day six, after three doses of 15 μg topical): 5×10^6 CFU
